What all share (format): biochemical
Experiment [1] addresses T1, HYAL1 (Homo sapiens, UniProt Q12794).
T1 construct: Human HYAL1 enzyme was isolated from urine following published protocols; from tissue; host or cells: human urine
T1 sequence (Q12794 22-435): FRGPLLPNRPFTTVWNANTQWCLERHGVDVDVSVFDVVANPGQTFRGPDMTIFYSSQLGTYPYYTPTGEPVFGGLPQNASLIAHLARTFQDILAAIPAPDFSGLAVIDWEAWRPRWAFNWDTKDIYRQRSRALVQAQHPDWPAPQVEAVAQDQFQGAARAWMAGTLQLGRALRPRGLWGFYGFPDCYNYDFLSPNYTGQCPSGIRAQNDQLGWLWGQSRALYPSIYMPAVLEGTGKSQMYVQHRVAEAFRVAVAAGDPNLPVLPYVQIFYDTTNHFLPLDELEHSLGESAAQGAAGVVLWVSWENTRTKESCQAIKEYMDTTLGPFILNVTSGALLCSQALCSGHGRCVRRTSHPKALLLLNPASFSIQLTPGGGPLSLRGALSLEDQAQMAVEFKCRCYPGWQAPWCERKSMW
In words: Anti-HYAL1 activity of Epidarus Extract Mix after incubation with antimicrobial agents. The settings on record: agent at 0.3%; 5 mg/ml Epidarus Extract Mix in 5% 1,3 Propanediol/Water, 48 hours, 37 degrees; relative to control without agent. The procedure: In order to achieve stable, bio-active cosmeceutical formulations, a range of commercially available cosmetic ingredients were assessed for their ability to solubilize the Prunella, Linden or Star Anise extracts or mixed extracts of Prunella, Linden or Star Anise without compromising the HYAL1—inhibitory activity of the botanical extracts. These included, for example: Sepigel 305™, Simugel 600™, Arlasolve™-DMI, Carbopol® Ultrez 21, Hydrolyte®5, Hydrolyte®6 and Zemea® 1,3 Propanediol. In addition, a number of preservative/antimicrobial compounds were similarly assessed for efficacy and effects on biological activity of the added botanical extracts. These included, for example: Phenoxyethanol, Optiphen™ (Phenoxyethanol and Caprylyl Glycol), Methylparaben and Chlorphenesin.
The antimicrobial agents were incubated in a solution of 5% 1,3 Propanediol/Water containing 5 mg/ml of Epidarus Extract Mix (Prunella, Star Anise and Linden) at the indicated concentrations for 48 hours at 37 degrees Centigrade. The anti-HYAL1 activity was measured relative to a control without added antimicrobial agents.

The target in experiment [2] is T1, HYAL1. In words: HYAL1-inhibitory activity of Epidarus extracts after simulated digestion with additives/excipients. The following applies: test ingredient with Epidarus extracts, after simulated gastric and intestinal digestion. The procedure: In order to develop bio-active formulations for osteoarthritis and bladder […] cystitis therapies in humans and animals, oral bio-availability studies were undertaken. […] Maltodextrin is a partially hydrolyzed vegetable starch and is made from corn, rice, potato starch, wheat, or other vegetable sources. […] The gastric digest was adjusted to pH 6.8 with 1M Sodium Hydroxide and mixed with an equivalent volume of Simulated Intestinal Fluid (SIF) to which was added a commercial preparation of canine pancreatic enzymes, at the following concentrations: Lipase (2,000 to 10,000 Units per ml), Protease (100 to 1,000 Units per ml), Amylase (200 to 2,000 Units per ml) and Bile Salts to 10 mM. Following the simulated complete digestion of the chew/tablet formulations, the levels of active ingredients were assayed and the HYAL1-inhibitory activity was determined. These assays were used to test a range of additives/excipients used in the production of functional nutritional supplements for human and animal use.

Experiment [3] addresses T1, HYAL1. In words: HYAL1 degradation of synovial fluid HA. The following applies: 12 ug Synovial Fluid HA per assay, 2 hours, 37 degrees. The procedure: Human HYAL1 enzyme was isolated from urine following published protocols (Afify, A. M. et al. Archives of Biochemistry and Biophysics 305, 434-441, 1993). The enzyme activity was calibrated and validated by comparison to commercially available recombinant human HYAL1 (R&D Systems, USA).
Synovial fluid from healthy joints is a solution of 5 to 7 mg/ml of High Molecular weight Hyaluronic Acid. The bovine metacarpopharangeal joints used in these experiments were from 2 year old steers and the synovial fluid was verified by Agarose Gel electrophoresis to be composed of predominantly High MW HA.
Degradation of Synovial Fluid by urinary HYAL1 breaks down the HA to tetra-saccharides in 2 hours at 37 degrees, using a standard HYAL1 assay, testing 12 ug Synovial Fluid HA per assay.
An extract mixture containing Star Anise Pod Extract, Linden Flower Extract and Prunella Flower Spike Extract was also tested to determine the minimum concentration of extract mix required to achieve 100% inhibition of Synovial Fluid HA under the same conditions as used for pentosan polysulfate. This concentration was determined to be 280 ng/ml.

In the case of `COC(=O)c1ccc(O)cc1` [Methylparaben], the “Anti-HYAL1 Activity” value on HYAL1 [1] was 45%. Take `CCCCCCCCCCCCCCCCCC(=O)O` [Stearic Acid]: the “% Inhibition of anti-HYAL1 activity” value on HYAL1 [2] is reported as 0%. For pentosan polysulfate, the “concentration causing 100% inhibition of HYAL1” value at HYAL1 [3] stood at 156 ng/mL.

(Values after US12370231B2, “Compositions for inhibiting degradation of hyaluronic acid and methods of use thereof” (Epidarus Therapeutics, LLC, priority 2020, dated 2025).)
